Like-named read-outs stand apart in the source and are kept apart here.
Assays:
[1] = system: chymotrypsin-like activity of the 26S proteasome; test: Proteasome activity assay in HEK293 cell lysates; assay type: cell-based, human; details: 7.5 μM, 16 h; for Proteasome chymotrypsin-like activity, geometric mean (treatment): HEK293 lysates, 37 °C, DMSO control = 1; for Proteasome chymotrypsin-like activity, geometric mean of ratios: treatment/control, ratio paired t test, HEK293
Method: Building on previous findings, we investigated how selected RUN compounds influence proteasomal function itself. Specifically, we examined the chymotrypsin-like activity of the 26S proteasome following a 16 hour treatment with 7.5 μM RUN compounds in the HEK293 cell line. […] In addition, two other cell lines, MCF7 and SH-SY5Y, were measured (see the SI, Fig. S6).
Fig. 3 (A) HEK293 cells were treated with RUN compounds at a concentration of 7.5 μM for 16 hours. DMSO was used as a vehicle control. Proteasome chymotrypsin-like activity was measured in cell lysates at 37 °C. Data came from three biological replicates (n = 3). Statistical analysis was done using ratio paired t-tests corrected for multiple comparisons with Holm–Šídák's method (α = 0.05). *p < 0.05. Detailed results of the analysis are shown in SI Table S7. (B) RUN-89 protects against polyQ-mediated toxicity in an NFE2L1-dependent manner. HCT116 parental cells (WT) and two independent DDI2 knockout clones (KO 04 and KO 11), in which NFE2L1 activation is impaired, were transiently transfected with plasmids encoding non-aggregating EGFP-HttQ23 or aggregation-prone EGFP-HttQ74. Cells were treated with 1 or 3 μM RUN-89 for 48 hours, and viability was measured using the alamarBlue assay. […] Data are shown as the Geomean ± GeoSD from four independent biological replicates (n = 4). Statistical analysis was performed on log2-transformed values using two-way repeated-measures ANOVA followed by Šídak's multiple comparison test. (C right) Parental SH-SY5Y cells (without α-synuclein expression) were treated in the same manner. (C left) The protective effect of RUN compounds was assessed by rotenone-induced α-synuclein proteotoxicity in SH-SY5Y cells, which mimics the PD-like phenotype. Cells were pre-treated with increasing concentrations of RUN compounds (0.312, 0.625, 1.25, and 2.5 μM) for 4 hours and then rotenone (1.125 μM) treatment was done for 24 hours. […]
2.7 Proteasome activity assay
The corresponding cell lines (HEK293, MCF7, or SH-SY5Y) were seeded into 6-well plates and allowed to adhere overnight under standard culture conditions. On the following day, HEK293 cells were treated with 7.5 µM RUN compounds, whereas MCF7 and SH-SY5Y cells were treated with 5 µM RUN compounds, for 16 hours each. After treatment, cells were harvested, resuspended in lysis buffer (50 mM HEPES, pH 7.5; 5 mM EDTA; 150 mM NaCl; 2 mM ATP; 1% Triton), and centrifuged at 15,000 rpm for 15 minutes at 4 °C. The resulting lysates (25 µg total protein) were incubated with 200 µM of the fluorogenic substrate Suc-Leu-Leu-Val-Tyr-AMC (Bachem, I1395) in assay buffer (50 mM Tris, pH 8.0; 10 mM MgCl₂; 1 mM ATP; 1 mM DTT) at 37 °C. Free AMC release was detected by measuring fluorescence at 360/460 nm. […]
HEK293 cells were seeded in 6-well plates and incubated for 24 hours before being transfected with a plasmid containing the CMV-XBP-Gluc reporter using Lipofectamine 2000.(4) After 6 hours, the transfected cells were subsequently transferred to 384-well plates, stabilized overnight, and treated with the proteasome inhibitor and ER stress inducer MG132 and/or various concentrations of RUN compounds (1, 5, and 10 µM) or vehicle (DMSO) for 16 hours. Luciferase activity was normalized to cell viability, which was assessed using the alamarBlue assay. The results are expressed as the fold change compared with the DMSO control, with the experiment conducted in biological triplicate. […]

SNCA-EGFP = SNCA-EGFP degradation in SH-SY5Y cells; assay type: cell-based, human
Method: This reporter is prone to aggregation because of its slow protein turnover. To assess compound efficacy, we measured the fluorescence signal of GFP-tagged synuclein within aggregates.
The GFP fluorescence signal was then normalized to that of the DMSO control and the cell number. The experiment was performed in at least five biological replicates. Statistical analysis was performed using paired t-tests with Holm–Šídák correction for multiple comparisons (α = […]
SH-SY5Y cells stably expressing SNCA-EGFP were seeded on a plate and allowed to […]
tadalafil (5 µM), or RUN compounds at a concentration of 1 µM or treated with an equivalent volume of DMSO dissolved in buffer as a vehicle control. The treatment was performed for 16 hours and then fluorescence was measured. The GFP signal intensity was normalized to both the DMSO control and the cell count.

[2] = SH-SY5Y, SNCA-EGFP degron, Figure S7

| Compound | Proteasome chymotrypsin-like activity, geometric mean (treatment) [1] | Proteasome chymotrypsin-like activity, geometric mean of ratios [1] | Geometric mean of ratios (paired t tests, Treatment vs Control = 100) (SNCA-EGFP; [2]) | Geometric mean, Treatment (Control = 100) (SNCA-EGFP; [2]) | Geometric mean of ratios (paired t tests, Treatment vs Control = 100) (SNCA-EGFP) |
| --- | --- | --- | --- | --- | --- |
| COc1ccc(/C=C2\CC(N)C/C(=C\c3ccc(OC)c(OC)c3)C2=O)cc1OC (centres unmarked) [RUN-81] | 1.21 | 1.21 | -11.53 | 88.47 |  |
| COc1ccc(/C=C2\CC(NC(=O)C3CCCC3)C/C(=C\c3ccc(OC)c(OC)c3)C2=O)cc1OC (centres unmarked) [RUN-89] |  | 1.36 |  | 88.39 | -11.61 |
| COc1ccc(/C=C2\CC(NC(=O)c3ccccn3)C/C(=C\c3ccc(OC)c(OC)c3)C2=O)cc1OC (centres unmarked) [RUN-94] | 1.21 | 1.21 | -7.67 | 92.33 |  |

Reference: article PMC12606464, “Investigating NFE2L1 activators for targeted protein aggregate clearance: a follow-up study” (RSC Medicinal Chemistry, 2025)
